Results: publication PMC7297445, “Pharmacokinetic/Pharmacodynamic Determination and Preclinical Pharmacokinetics of the β-Lactamase Inhibitor ETX1317 and Its Orally Available Prodrug ETX0282” (ACS Infectious Diseases, 2020)

Columns and labels:
[1] = test system: E. coli ARC2687; assay: MIC, broth microdilution (CLSI); type: cell-based; conditions: Escherichia coli, ARC2687; combination at 1:2 ratio cefpodoxime:ETX1317, MIC of CPD
Experimental: (§1) MICs were determined utilizing a 1:2 ratio of cefpodoxime:ETX1317. […] The isolates utilized in the present study (Table 1) were broadly insensitive to CPD, presumably due to the presence of ESBLs and carbapenemases expressed in these strains. The addition of ETX1317 restored CPD activity to ≤1 μg/mL across all the tested isolates.
(§2) The MIC of each isolate was determined using the broth microdilution method following CLSI guidelines of document M07-A7 (CLSI M07-A7).

[2] = test system: K. pneumoniae ARC4420; assay: MIC, broth microdilution (CLSI); type: cell-based; conditions: Klebsiella pneumoniae, combination at 1:2 ratio cefpodoxime:ETX1317, MIC of CPD
Experimental: as §1, §2

[3] = test system: K. pneumoniae ARC4488; assay: MIC, broth microdilution (CLSI); type: cell-based; conditions: Klebsiella pneumoniae, ARC4488; combination at 1:2 ratio cefpodoxime:ETX1317, MIC of CPD
Experimental: as §1, §2

[4] = test system: K. pneumoniae ARC5118; assay: MIC, broth microdilution (CLSI); type: cell-based; conditions: Klebsiella pneumoniae, ARC5118; combination at 1:2 ratio cefpodoxime:ETX1317, MIC of CPD
Experimental: as §1, §2

[5] = test system: K. pneumoniae ARC4420; assay: Chemostat in vitro infection model, dose fractionation; type: cell-based; conditions: with CPD
Experimental: (§3) The PK/PD driver of ETX1317 was assessed in the presence of CPD in both hollow-fiber[28]−[31] and chemostat[32]in vitro infection model systems. In all cases, CPD was administered q12h via a 2 h infusion and eliminated with a 2 h half-life, with the concentration of drug exceeding the MIC (the MIC of CPD in the presence of ETX1317 at a 1:2 ratio) for 50% of the dosing interval for each strain. Representative Emax plots are shown graphically for Escherichia coli ARC2687 in the hollow-fiber model and Klebsiella pneumoniae ARC4420 in the chemostat system (Figure 2). […] This could partially be attributed to the distribution of the concentration ranges utilized for the hollow-fiber infection model (HFIM) where most of the data scatter occurred in the efficacious dose range for lower MIC strains. It is important to note that initial evaluation of K. pneumoniae ARC4420 and ARC5118 was completed in the HFIM but rapid degradation of CPD, presumably through accumulation of β-lactamases in the extra-capillary space of the cartridge precluded a reliable assessment of the PK/PD driver with these strains in this model.[32] […] In both the HFIM and chemostat models the optimum critical threshold of ETX1317 was established through iterative Emax fitting of a range of ETX1317 concentrations from 0.5× to 2× the CPD:ETX1317 MIC value. In the HFIM, %Time > ETX1317 CT of 2× MIC provided the highest correlation to observed activity which appeared to be independent to the apparent intrinsic activity of ETX1317 (as reflected by ETX1317 MICBLI of K. pneumoniae ARC4486 vs ARC4488). […] In both models CPD infused alone mimicked vehicle control as expected with similar growth of +2 to 4 log10 CFU/mL.
(§4) Enterobacteriaceae isolates E. coli ARC2687 and K. pneumoniae isolates ARC4486, ARC4488, ARC5118, and ARC4420 were prepared for infection from an overnight plate culture. On the day of the experiment, a few colonies of bacteria were inoculated in Mueller Hinton Broth II (MHBII, Sigma-Aldrich, St. Louis, MO) and incubated at 35 °C until reaching log-phase growth, about 1 h. In hollow-fiber studies cell population density is confirmed by turbidimetric assay (OD600) and final dilution is adjusted to deliver approximately 15 mL of bacteria (1 × 10^6 CFU/mL) to the extra-capillary space of the hollow-fiber cartridge (Fibercell Systems, Inc., Frederick, MD). After 1 h, targeted drug concentrations were introduced using a 2 h infusion via a syringe pump (Harvard Apparatus, Holliston, MA). […]
(§5) Dose range and dose fractionation were performed in hollow-fiber infection model (HFIM) and chemostat (one-compartment) in vitro infection model. […] CPD concentrations were targeted to achieve exposure of ∼50%Time > MIC determined in the presence of ETX1317. […]

[6] = test system: K. pneumoniae ARC5118; assay: as above; type: cell-based; conditions: with CPD
Experimental: as §3, §4, §5

[7] = Plasma protein binding; type: in vitro ADME, monkey
Experimental: Plasma protein binding was determined by rapid equilibrium dialysis. Plasma was freshly prepared from blood samples drawn in to EDTA (anticoagulant) containing tubes. Plasma was prepared using a table-top centrifuge and spun per instruction of the tube manufacturer and specifications (Beckton, Dickinson and Company, Franklin Lakes, NJ) and placed on ice prior to use.
Pooled plasma samples were centrifuged at 2000 rpm (approximately 1400g) for 15 min at 4 °C to remove debris. Approximately 90% of the clear supernatant fraction was transferred to a separate tube. Samples (500 μL) were then spiked with a 100× stock solution 100 μM, 0.5 mM, and 10 mM ETX1317 in DMSO respectively for 1, 5, and 100 μM final concentrations, transferred to the top of the filter chambers, and allowed to equilibrate for 15 min prior to centrifugation. The filtrate tubes were centrifuged at 14000g for 15 min at 4 °C. Next, 50 μL of the filtrate was precipitated with 300 μL of acetonitrile containing 250 ng/mL of carbutamide as the internal standard and the samples were analyzed by LC/MS/MS analysis.

[8] = Stability in liver microsomes; type: in vitro ADME
Experimental: Based upon the non-clinical PK data, a range of 60–80% bioavailability and a moderate absorption rate of 0.5–1.0 h^–1 have been considered for humans. In consideration of these predicted parameters, mean percent fT > CT of 1 μg/mL (2× MIC of 0.5 μg/mL) estimates for a 500 mg ETX1317 equiv q12h dose of ETX0282 are summarized in Table S3.

**Q.** Which results are given for `CC1=C[C@@H](C(N)=O)N2C[C@@H]1N(O[C@H](F)C(=O)O)C2=O` [ETX1317]?
**A.** MIC [1]: 0.5 µg/mL; MIC [2]: 16 µg/mL; MIC [3]: 0.5 µg/mL; MIC [4]: 32 µg/mL; %Time > CT of 1 μg/mL for 1–log10 kill [5]: 63%; %Time > CT of 1 μg/mL for stasis [5]: 59%; %Time > CT of 1 μg/mL for 1–log10 kill [6]: 65%; %Time > CT of 1 μg/mL for stasis [6]: 60%; Proportion unbound ([7]; 1 µM): 77%; Proportion unbound ([7]; 5 µM): 97%; stability in liver microsomes [8]: Good stability
